Structures are written as SMILES.

The test system of the assay is Mycobacterium tuberculosis H37Rv growth inhibition, no glycerol. The experiment in a line: Confirmatory growth inhibition assay, Mycobacterium tuberculosis H37Rv, absence of glycerol (AID 449764).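 On all read-outs here: growth read after 7 days of incubation.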 Conditions: for IC90: measured here: IC90 growth inhibition.

The IC50 is the concentration needed to halve the response being measured. What is called IC90 is the concentration at which the effect reaches the 90% level. A lower IC90 goes with greater potency. As for `COC(=O)CSc1[nH]c2ccc(Br)cc2c1[N+](=O)[O-]`, the IC50 is 15.1 µM and the IC90 was found to be 25 µM.

For `Cc1cccc(NC(=O)CCSc2nnc(Cc3ccccc3)o2)c1`, the IC50 is 38.1 µM and the IC90 was more than 100 µM.

For the compound `CCOC(=O)COc1cc([N+](=O)[O-])cc2cccnc12`, the IC50 was 30.5 µM and the IC90 is 46.4 µM.

`Cc1nn(-c2ccccc2)c(N)c1C(c1ccc(C(C)C)cc1)c1c(C)nn(-c2ccccc2)c1N`: the IC50 was 22.9 µM and the IC90 came to 25.8 µM.

For `O=C(NC(=S)Nc1ccc(N2CCCCC2)c(Cl)c1)c1cccs1`, the IC50 is 21.2 µM and the IC90 is 29.2 µM.

With `CCOC(=O)COc1cc(O)c2c(=O)cc(-c3ccccc3)oc2c1`, the IC50 is 1.38 µM and the IC90 is 2.03 µM.

With `CCc1nnc(NS(=O)(=O)c2ccc(N/C=C\C(=O)c3cccc(OC)c3)cc2)s1`, the concentration for half-maximal inhibition (IC50) is 38.5 µM and the IC90 was determined as 53 µM.

Consider `O=C(O)c1ccc(N2C(=O)/C(=C/c3ccc(-c4ccc([N+](=O)[O-])cc4)o3)C=C2c2ccccc2)cc1`, for which the IC50 was 49.8 µM and the IC90 was more than 100 µM.

As to `CCOC(=O)c1ccc(NC(=O)CCc2nc(-c3ccc(Cl)cc3)no2)cc1`, the half-inhibitory concentration (IC50) is 48.1 µM and the IC90 is more than 100 µM.

Regarding `O=C1C(=O)N(c2ccccc2)c2ccccc21`, the IC50 was 17.8 µM and the IC90 was 34 µM.

On to `CCn1c(C)c(C)c2cc(C(=O)Nc3cccc(Cl)c3)ccc21`, for which the IC50 is 36.2 µM and the IC90 is more than 100 µM.

For the compound `Cc1ccc(C)c(C2C(=O)c3ccccc3C2=O)c1`, the IC50 is 16.5 µM and the IC90 was 46.8 µM.

As to `Cc1ccc(S(=O)(=O)N(C)c2ccc(OCC(=O)OCc3ccc(C#N)cc3)cc2)cc1`, the IC50 was 17.3 µM and the IC90 stood at 28.3 µM.

As for `O=C1C(SCCO)=C(SCCO)C(=O)c2ccccc21`, the half-maximal inhibitory concentration (IC50) was 11.3 µM and the 90% effect concentration (IC90) stood at 12 µM.

As to `Cc1ccc(Nc2nc(CSc3nnc(-c4cccs4)o3)cs2)cc1`, the half-maximal inhibitory concentration (IC50) is 43.3 µM and the IC90 is more than 100 µM.

`COCCNC(=S)N/N=C(\C)c1ccc(OC)cc1`: the IC50 is 43.6 µM and the IC90 turned out to be 49 µM.

On to `Nc1nc2ccccc2n1CCOc1ccccc1Cl`, for which the IC50 is 20.3 µM and the concentration for an effect of 90% (IC90) is 23.1 µM.

For the compound `NC(N)=N/N=C/c1ccc(N(c2ccccc2)c2ccccc2)cc1`, the IC50 is 9.86 µM and the IC90 was found to be 12.8 µM.

`c1ccc(-n2cnc3cc(NCc4cccs4)ccc32)cc1`: the IC50 was 89 µM and the IC90 is more than 100 µM.

Regarding `Cc1ccc(S(=O)(=O)NNC(=O)c2cc([N+](=O)[O-])c(C)c([N+](=O)[O-])c2)cc1`, the IC50 was 10.5 µM and the IC90 was 13.8 µM.

On to `CC(=O)c1c(N2CCCC2)[nH]c(-c2ccccc2)nc1=S`, for which the IC50 is 81.4 µM and the IC90 is more than 100 µM.

Turning to `N#CCn1c(CCl)nc2ccccc2c1=O`, the IC50 was 22.8 µM and the IC90 is 25.8 µM.

Consider `O=c1[nH]c(=O)n(C2CCCO2)cc1F` (centres undefined), for which the IC50 was 57.1 µM and the IC90 is more than 100 µM.

In the case of `CCCCn1c(O)c(/C=C2/C=CC=N2)c(=O)[nH]c1=O`, the IC50 is 12.1 µM and the concentration for an effect of 90% (IC90) was determined as 23.6 µM.

Turning to `COc1ccc(-c2nnn(CC(=O)OC3CCCCC3)n2)cc1OC`, the IC50 is 20.6 µM and the IC90 was more than 100 µM.

Regarding `Cc1ccc(NC(=O)CSc2nc3ccccc3c(=O)n2CCCN2CCCCC2)cc1Cl`, the concentration for half-maximal inhibition (IC50) is 36.6 µM and the IC90 amounted to 79.2 µM.

On to `COCc1nnc(NC(=O)C2CC(=O)N(c3ccc(C)c(Cl)c3)C2)s1` (centres undefined), for which the IC50 is 76.5 µM and the IC90 was more than 100 µM.

`O=C(Oc1ccc(-c2cn3c(n2)SCC3)cc1)c1ccccc1`: the IC50 is 73.2 µM and the IC90 was more than 100 µM.

Take `COc1ccccc1C1CCN(Cc2ccc3ccccc3c2)CC1`: the IC50 is 21.8 µM and the IC90 is 24.6 µM.

Regarding `CC(C)(C)NC(=O)C(c1c[nH]c2ccccc12)N(C(=O)Cn1nnc(-c2ccc(F)cc2)n1)c1cccc(O)c1` (centres undefined), the IC50 was 34.7 µM and the IC90 came out at 45.6 µM.

On to `CCOC(=O)c1[nH]c2ccc(F)cc2c1NC(=O)CN1CCN(C/C=C/c2ccccc2)CC1`, for which the IC50 is 28.4 µM and the 90% effect concentration (IC90) came to 42.8 µM.

With `O=Nc1c2nc3ccccc3n(O)c-2c2ccccc12`, the IC50 is 12.2 µM and the IC90 amounted to 13.7 µM.

Consider `O=C(NCCC1=CCCCC1)NC12CC3CC(CC(C3)C1)C2`, for which the IC50 was less than 0.2 µM and the IC90 came to 1.58 µM.

For `CC(Sc1nnc(NC2CCCCC2)s1)C(=O)Nc1ccc2c(c1)C(=O)c1ccccc1C2=O` (centres undefined), the IC50 was 11.2 µM and the IC90 worked out at 14.4 µM.

Regarding `Cc1ccc(C(=O)N2N=C(c3ccc(NS(C)(=O)=O)cc3)CC2c2cccs2)cc1` (centres undefined), the IC50 was 23.6 µM and the IC90 is 37.5 µM.

On to `O=C(Nc1nc2ccccc2[nH]1)C12CC3CC(CC(C3)C1)C2`, for which the IC50 is 13.5 µM and the IC90 is more than 100 µM.

Turning to `CCCCCCCCNC(C)C(O)c1ccc(SC(C)C)cc1` (centres undefined), the IC50 is 25 µM and the 90% effect concentration (IC90) was 26.5 µM.

As for `CNC(C)C#Cc1ccc2oc3cc(C)c(C)cc3c(=O)c2c1` (centres undefined), the IC50 is 16.4 µM and the IC90 was found to be 35.5 µM.

For `CC(C)(C)c1ccc(C(=O)CSc2n[nH]c(=O)[nH]c2=O)cc1`, the IC50 was 16.4 µM and the concentration for an effect of 90% (IC90) came out at 28.6 µM.

Regarding `Cc1ccc2c(c1)c(/C=C/c1cc[n+](C)cc1)c(C)n2C`, the IC50 was 5.82 µM and the IC90 is 6.61 µM.

For the compound `CCOc1cc(CNCCCN2CCOCC2)cc(Br)c1OCC(=O)Nc1cccc(C(F)(F)F)c1`, the 50% inhibitory concentration (IC50) is 23.3 µM and the IC90 was 32 µM.

As for `Cc1cccc(NS(=O)(=O)c2ccc(C(=O)N3CCN(c4ccccc4O)CC3)cc2)c1C`, the IC50 was 85.5 µM and the IC90 is more than 100 µM.

Consider `O=c1c2c(nc3nc(NCc4ccc(Cl)cc4)[nH]n13)CCC2`, for which the IC50 was 9.12 µM and the IC90 is 14.3 µM.

Turning to `CCSc1ccc2c(c1)N(CCCN1CCN(C)CC1)c1ccccc1S2`, the concentration for half-maximal inhibition (IC50) is 23.1 µM and the IC90 was 27.2 µM.

As for `COc1c(C)cc(C(=O)C2CCCN(Cc3ccccn3)C2)cc1C` (centres undefined), the IC50 was 20.2 µM and the IC90 turned out to be 29.7 µM.

Take `O=C(CSCc1ccc([N+](=O)[O-])cc1)N/N=C/c1ccncc1`: the IC50 was 11.3 µM and the IC90 worked out at 26 µM.

For `CCc1ccc(NCc2ccc(OC)c(Cn3ccnc3)c2)cc1`, the IC50 is 21.5 µM and the IC90 was 23.7 µM.

For the compound `O=C(Cn1ncc(Cl)c(Cl)c1=O)c1ccc2c(c1)OCCO2`, the IC50 was 10.4 µM and the IC90 is 15.7 µM.

On to `CC[C@H](C)[C@@H]1O[C@@]2(C=CC1C)CC1C[C@@H](CC=C(C)C(O[C@H]3CC(OC)C(O[C@H]4CC(OC)C(O)C(C)O4)C(C)O3)C(C)C=CC=C3CO[C@@H]4C(O)C(C)=C[C@@H](C(=O)O1)[C@]34O)O2` (some centres undefined), for which the IC50 was 16.5 µM and the IC90 came out at 27.3 µM.

In the case of `Cc1ccccc1CSc1nsc(N)n1`, the half-maximal inhibitory concentration (IC50) was 9.03 µM and the IC90 stood at 24.1 µM.

With `CC(C)CNC(=S)NC(=O)c1csc([N+](=O)[O-])c1`, the IC50 is 22.2 µM and the IC90 is 53.7 µM.

Regarding `CN(C)N=Nc1nc[nH]c1C(N)=O`, the IC50 was 5.04 µM and the IC90 stood at 8.38 µM.

Values taken from PubChem BioAssay AID449764 (Southern Research Specialized Biocontainment Screening …, 2010).
